Experimental data: the supplement of paper PMC10307832

Legend:
Experiment in all cases: relative viability (nuclei count vs DMSO), 5 days (fraction); higher = more cells survive
AZ3146 + Bortezomib = compound: CN1CCC(CC1)OC2=CC(=C(C=C2)NC3=NC=C4C(=N3)N(C(=O)N4C)C5CCCC5)OC [AZ3146] + CC(C)C[C@H](NC(=O)[C@H](Cc1ccccc1)NC(=O)c1cnccn1)B(O)O [Bortezomib] (partner 0.002 µM)
Summary of the method: (§1)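 Relative viability was taken as the ratio of nuclei in treated wells to nuclei in vehicle wells. Lung cancer cell lines in 1536-well plates received compounds by pin tool one day after seeding, either one drug alone or a fixed anchor-drug dose plus five library-drug doses (not always all listed) in √10 steps. Nuclei were counted on 4× images after 5 days of treatment, and values are medians of duplicate plates.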

GSK-J4 + Dasatinib = compound: CCOC(=O)CCNc1cc(N2CCc3ccccc3CC2)nc(-c2ccccn2)n1 [GSK-J4] + Cc1nc(Nc2ncc(C(=O)Nc3c(C)cccc3Cl)s2)cc(N2CCN(CCO)CC2)n1 [Dasatinib] (partner 0.075 µM)
Summary of the method: as §1

AZ3146 + Tozasertib = compound: CN1CCC(CC1)OC2=CC(=C(C=C2)NC3=NC=C4C(=N3)N(C(=O)N4C)C5CCCC5)OC [AZ3146] + Cc1cc(Nc2cc(N3CCN(C)CC3)nc(Sc3ccc(NC(=O)C4CC4)cc3)n2)n[nH]1 [Tozasertib] (partner 0.1 µM)
Summary of the method: as §1

AZ3146 + Pemetrexed = compound: CN1CCC(CC1)OC2=CC(=C(C=C2)NC3=NC=C4C(=N3)N(C(=O)N4C)C5CCCC5)OC [AZ3146] + Nc1nc2[nH]cc(CCc3ccc(C(=O)N[C@@H](CCC(=O)O)C(=O)O)cc3)c2c(=O)[nH]1 [Pemetrexed] (partner 0.2 µM)
Summary of the method: as §1

| Cell Line | relative viability (AZ3146 + Bortezomib; first compound 0.08 µM) | relative viability (AZ3146 + Bortezomib; first compound 0.253 µM) | relative viability (AZ3146 + Bortezomib; first compound 0.8 µM) | relative viability (AZ3146 + Bortezomib; first compound 2.53 µM) | relative viability (AZ3146 + Bortezomib; first compound 8 µM) | relative viability (GSK-J4 + Dasatinib; first compound 0.5 µM) | relative viability (GSK-J4 + Dasatinib; first compound 5 µM) | relative viability (GSK-J4 + Dasatinib; first compound 50 µM) | relative viability (AZ3146 + Tozasertib; first compound 0.08 µM) | relative viability (AZ3146 + Tozasertib; first compound 0.253 µM) | relative viability (AZ3146 + Tozasertib; first compound 0.8 µM) | relative viability (AZ3146 + Tozasertib; first compound 2.53 µM) | relative viability (AZ3146 + Tozasertib; first compound 8 µM) | relative viability (AZ3146 + Pemetrexed; first compound 0.08 µM) | relative viability (AZ3146 + Pemetrexed; first compound 0.253 µM) | relative viability (AZ3146 + Pemetrexed; first compound 0.8 µM) | relative viability (AZ3146 + Pemetrexed; first compound 2.53 µM) | relative viability (AZ3146 + Pemetrexed; first compound 8 µM) | relative viability (GSK-J4 + Dasatinib; first compound 1.581 µM) | relative viability (GSK-J4 + Dasatinib; first compound 15.81 µM) |
| --- | --- | --- | --- | --- | --- | --- | --- | --- | --- | --- | --- | --- | --- | --- | --- | --- | --- | --- | --- | --- |
| EBC-1 | 0.549 | 0.578 | 0.541 | 0.521 | 0.279 | – | – | – | – | – | – | – | – | – | – | – | – | – | – | – |
| EKVX | 1.03 | 1.07 | 1.11 | 1.04 | 1.26 | 0.535 | 0.569 | 0.43 | 0.314 | 0.399 | 0.364 | 0.378 | 0.232 | 0.441 | 0.424 | 0.365 | 0.389 | 0.422 | – | – |
| EMC-BAC-2 | 1.03 | 1.03 | 1.19 | 1.12 | 1.15 | 0.317 | 0.191 | 0.258 | 0.222 | 0.269 | 0.307 | 0.277 | 0.233 | 0.379 | 0.442 | 0.433 | 0.466 | 0.411 | 0.333 | 0.339 |
| EPLC-272H | 0.754 | 0.968 | 0.879 | 0.97 | 1.03 | 0.418 | 0.262 | 0.282 | – | 0.237 | 0.184 | 0.217 | 0.138 | 0.366 | 0.369 | 0.37 | 0.341 | 0.396 | 0.327 | 0.357 |
| H3255 | 0.757 | 0.627 | 0.825 | 0.835 | 0.792 | 0.361 | 0.416 | 0.386 | 0.598 | 0.475 | 0.61 | 0.646 | 0.196 | 0.597 | 0.536 | 0.542 | 0.6 | 0.574 | 0.364 | 0.369 |
| HARA | 1.04 | 1.15 | 1.15 | 1.14 | 0.533 | 0.267 | – | 0.258 | 0.115 | 0.15 | 0.0956 | 0.0781 | 0.0801 | 0.22 | 0.257 | 0.245 | 0.217 | 0.231 | – | 0.24 |
| HCC-15 | 1.01 | 1.08 | 1.02 | 1.12 | 1.04 | 0.624 | 0.526 | 0.393 | 0.374 | 0.426 | 0.263 | 0.221 | 0.102 | 0.222 | 0.22 | 0.221 | 0.224 | 0.207 | – | 0.476 |
| HCC-44 | 0.875 | 0.908 | 0.881 | 0.909 | 0.884 | – | – | – | 0.502 | 0.944 | 0.904 | 0.372 | 0.315 | 0.601 | 0.654 | 0.687 | 0.698 | 0.654 | – | – |
| HCC-78 | – | 0.471 | 0.271 | 0.558 | 0.447 | 0.562 | 0.651 | 0.319 | 0.315 | 0.449 | 0.347 | 0.404 | 0.44 | – | 1 | 0.911 | 0.91 | 0.895 | 0.374 | 0.3 |
